From BindingDB's records for patent US9260439 (Pfizer, 2016)

These compounds were tested against Phosphatidylinositol 3-kinase regulatory subunit alpha [Q431L,Q432E,D433V,Q434L,V435F,V436Q,K437G,E438P]/4,5-bisphosphate 3-kinase catalytic subunit alpha isoform (Homo sapiens, UniProt P42336) (assay: Biochemical Assay).
From the text: PI3KA_Act: Genes encoding for full length p110alpha and p85alpha nSH-iSH2=niSH2 (p85a aminoacids 322-600) subunits of PI3Kalpha complex were subcloned from existing constructs into pFASTBAC Dual vector (Life Technologies, Carlsbad, Calif.) using standard cloning procedures. Gene encoding p110alpha subunit was subcloned into polyhedrine promoter while gene encoding p85alpha niSH2 domains was subcloned into p10 promoter. Additionally, Human Rhinovirus 3C Protease (HRV 3C) site was introduced between nSH2 and iSH2, replacing aminoacids 431-438 of p85alpha with […] HRV 3C recognition sequence, using standard QuickChange mutagenesis protocol (Agilent Technologies, CA). Recombinant baculovirus was generated using Bac-to-Bac protocol (Life Technologies, Carlsbad, Calif.). The biochemical assays of kinase activity of full-length PI3Kalpha (full-length p110alpha/p85a) or truncated PI3Kalpha (p110alpha/iSH2 p85a) were conducted using a fluorescence polarization format similar to the procedure of Yuan J., et al., (2011) "PF-04691502, a Potent and Selective Oral Inhibitor of PI3K and mTOR Kinases with Antitumor Activity, Mol Cancer Ther. 10, 2189-2199.

| Compound | Ki [nM] |
| --- | --- |
| C[C@]1(N2CCc3c(-c4cnc(N)nc4)nc(N4CCOCC4)nc32)CCN(C(=O)C2(O)CC2)C1 [US9260439, 338] | 0.071 |
| CC(C)(CO)C(=O)N1CC[C@](C)(N2CCc3c(-c4cnc(N)nc4)nc(N4CCOCC4)nc32)C1 [US9260439, 277] | 0.034 |
| C[C@]1(N2CCc3c(-c4cnc(N)nc4)nc(N4CCOCC4)nc32)CCN(C(=O)C2(CO)CC2)C1 [US9260439, 339] | 0.08 |
| C[C@]1(N2CCc3c(-c4cnc(N)nc4)nc(N4CCOCC4)nc32)CCN(C(=O)C2(F)CC2)C1 [US9260439, 331] | < 0.018 |
| CC(=O)NCC(=O)N1CC(N2CCc3c(-c4cnc(N)nc4)nc(N4CCOC[C@@H]4C)nc32)C1 [US9260439, 201] | 1.4 |
